{"source": "patent US20030212112A1", "about": "“Method for administering a phosphodiesterase 4 inhibitor” (SmithKline Beecham Corporation, priority 1999, published 2003)", "origin": "cited, not measured here", "conditions": "clinical studies / indications reported in background"}
{"smiles": "CCCCn1c(=O)c2c(ncn2CC(C)=O)n(CCCC)c1=O", "note": "[denbufylline]", "values": [{"measurement": "side effects", "result": "may include pyrosis, nausea and emesis"}]}
{"smiles": "COc1ccc(C2CNC(=O)C2)cc1OC1CCCC1", "note": "(centres unmarked) [rolipram]", "values": [{"measurement": "side effects", "result": "psychotropic activity and produces gastrointestinal effects"}]}
